Here are results for 27 compounds from patent publication US9221791B2, “Metalloenzyme inhibitor compounds” (Viamet Pharmaceuticals, Inc., priority 2011, dated 2015).

≈ marks a conversion by molar mass, not a printed value. Some results are limits rather than exact numbers.

The subject of assay [1] is Puccinia recondita tritici = Puccinia triticina. The assay is described as follows: Fungicidal activity vs. leaf rust on wheat plants. The note with it: wheat (variety Yuma) sprayed at 50 ppm, inoculated on the following day, evaluated 7-9 days later; read-out: Puccinia Rating (% Disease Control @ 50 ppm). The class given is in vivo. From the text:
D. Evaluation of Fungicidal Activity Vs. Leaf Rust (Causal Agent Puccinia recondita tritici=Puccinia triticina; Bayer Code PUCCRT). […] Each pot contained 3-8 seedlings. These plants were sprayed until wet with the formulated test compounds. The compounds were formulated at 50 ppm in 10 vol. % acetone plus 90 vol. % Triton X water (deionized water 99.99 wt %+0.01 wt % Triton X100), giving a “formulated test compound.” Formulated test compounds were applied to plants using a turn table sprayer fitted with two opposing air atomization nozzles which delivered approximately 1500 L/ha of spray volume. On the following day, the leaves were inoculated with an aqueous spore suspension of Puccinia recondita tritici and the plants were kept in high humidity overnight to permit spores to germinate and infect the leaf. The plants were then transferred to a greenhouse until disease developed on untreated control plants. Disease severity was evaluated 7-9 days later, depending on the speed of disease development. In each case of Table 3, the Puccinia rating scale is as follows: […]

In assay [2] the test system is Septoria tritici (ATCC 26517). The assay is described as follows: Minimum Inhibitory Concentration (MIC) (Septoria tritici), CLSI-based microdilution. The class given is cell-based. The note with it: S. tritici ATCC 26517, 22° C. for seven days, 50% reduction in growth; for MIC: Zymoseptoria tritici, ATCC26517, 168 h, read-out: Septoria Rating (MIC). The protocol:
C. Minimum Inhibitory Concentration (MIC) (Septoria tritici)
Compounds of the present disclosure were assessed for their ability to inhibit the growth of a common strain of the fungal plant pathogen Septoria tritici (ATCC 26517) using a procedure based on a Clinical and Laboratory Standards Institute (CLSI) microdilution assay protocol for filamentous fungi.
Stock solutions of the test compounds and standards were prepared in DMSO at 6400 μg/mL. Each stock solution was used to prepare a 2-fold dilution series ranging from 16 to 0.016 μg/mL (total of 11 compound concentrations) in RPMI-1640 (Roswell Park Memorial Institute) medium containing 3-(N-morpholino)propanesulfonic acid (MOPS) buffer and 2% DMSO. A 100 μL aliquot of the dilutions was added to columns 1 (16 μg/mL compound) through 11 (0.016 μg/mL compound) of a 96-well microtiter plate. This format was replicated in a second row of the microtiter plate. Thus, each microtiter plate could include 11 concentrations of four test or control compounds replicated twice. A 100 μL aliquot of RPMI-1640/MOPS/2% DMSO medium was added to column 12 (no compound control) of the microtiter plate.
A fresh culture of S. tritici was used to prepare a solution of approximately 5×10^4 colony-forming units per milliliter (cfu/mL) in RPMI/MOPS medium without DMSO. A 100 µL aliquot of this solution was added to all 96 wells in the microtiter plate. […] The assay plates were incubated at 22° C. for seven days in the dark without shaking.
In each case of Table 3 the Septoria rating scale is as follows: […]
(In broth dilution the organism is exposed to a series of concentrations in liquid medium.)

In general, MIC refers to the lowest concentration that inhibits growth of the organism. Turning to `OC(Cn1cnnn1)(c1ccc(F)cc1F)C(F)(F)c1ccccn1` (stereo not drawn) [2(−), 2-(2,4-Difluorophenyl)-1,1-difluoro-1-(pyridin-2-yl)-3-(1H-tetrazol-1-yl)propan-2-ol], the pest or weed control at 50 ppm in assay [1] fell in the range of 80 to 100%. The MIC in assay [2] was not above 0.5 µg/mL.

As to `OC(Cn1cnnn1)(c1ccc(F)cc1F)C(F)(F)c1ccc(Br)cn1` (stereo not drawn) [Compound 1, 1-(5-Bromopyridin-2-yl)-2-(2,4-difluorophenyl)-1,1-difluoro-3-(1H-tetrazol-1-yl)propan-2-ol], in assay [1], the pest or weed control at 50 ppm lay in the range of 80 to 100%. Further, the minimal inhibitory concentration (MIC) in assay [2] was not above 0.5 µg/mL.

Turning to `OC(Cn1cnnn1)(c1ccc(F)cc1F)C(F)(F)c1ccc(F)cn1` (stereo not drawn) [Compound 10, 2-(2,4-Difluorophenyl)-1,1-difluoro-1-(5-fluoropyridin-2-yl)-3-(1H-tetrazol-1-yl)propan-2-ol], the pest or weed control at 50 ppm in assay [1] lay within 80 to 100%. The minimum inhibitory concentration (MIC) in assay [2] stood at 1.5 µg/mL (≈ 4.04 µM).

As to `OC(Cn1cnnn1)(c1ccc(F)cc1F)C(F)(F)c1ccc(CC(F)(F)F)cn1` (stereo not drawn) [Compound 17, 2-(2,4-Difluorophenyl)-1,1-difluoro-3-(1H-tetrazol-1-yl)-1-(5-(2,2,2-trifluoroethyl)pyridin-2-yl)propan-2-ol], the pest or weed control at 50 ppm in assay [1] lay in the range of 80 to 100%. In addition, the MIC in assay [2] is not above 0.5 µg/mL.

In the case of `OC(Cn1cnnn1)(c1ccc(F)cc1F)C(F)(F)c1ccc(C2CC2)cn1` (stereo not drawn) [Compound 18, 1-(5-Cyclopropylpyridin-2-yl)-2-(2,4-difluorophenyl)-1,1-difluoro-3-(1H-tetrazol-1-yl)propan-2-ol], the pest or weed control at 50 ppm in assay [1] was in the range of 80 to 100%. The minimum inhibitory concentration (MIC) in assay [2] was not above 0.5 µg/mL.

For the compound `OC(Cn1cnnn1)(c1ccc(Cl)cc1F)C(F)(F)c1ccc(Br)cn1` (stereo not drawn) [Compound 22, 1-(5-Bromopyridin-2-yl)-2-(4-chloro-2-fluorophenyl)-1,1-difluoro-3-(1H-tetrazol-1-yl)propan-2-ol], in assay [1], the pest or weed control at 50 ppm was in the range of 80 to 100%. For the same compound, the minimal inhibitory concentration (MIC) in assay [2] was not above 0.5 µg/mL.

Turning to `Cc1ccc(C(F)(F)C(O)(Cn2cnnn2)c2ccc(F)cc2F)nc1` (stereo not drawn) [Compound 25, 2-(2,4-Difluorophenyl)-1,1-difluoro-1-(5-methylpyridin-2-yl)-3-(1H-tetrazol-1-yl)propan-2-ol], the pest or weed control at 50 ppm in assay [1] was 80 to 100%. In addition, the minimal inhibitory concentration (MIC) in assay [2] was 1.5 µg/mL (≈ 4.08 µM).

`OC(Cn1cnnn1)(c1ccc(Cl)cc1F)C(F)(F)c1ccc(Cl)cn1` (stereo not drawn) [Compound 26, 2-(4-Chloro-2-fluorophenyl)-1-(5-chloropyridin-2-yl)-1,1-difluoro-3-(1H-tetrazol-1-yl)propan-2-ol]: the pest or weed control at 50 ppm in assay [1] was 80 to 100%. For the same compound, the MIC in assay [2] was not above 0.5 µg/mL.

As for `OC(Cn1cnnn1)(c1ccc(Cl)cc1F)C(F)(F)c1ccc(F)cn1` (stereo not drawn) [Compound 27, 2-(4-Chloro-2-fluorophenyl)-1,1-difluoro-1-(5-fluoropyridin-2-yl)-3-(1H-tetrazol-1-yl)propan-2-ol], the pest or weed control at 50 ppm in assay [1] fell in the range of 80 to 100%. In assay [2], the MIC amounted to 1.5 µg/mL (≈ 3.87 µM).

Consider `OC(c1cncnc1)(c1ccc(F)cc1F)C(F)(F)c1ccc(Br)cn1` (stereo not drawn) [Compound 58, 2-(5-Bromopyridin-2-yl)-1-(2,4-difluorophenyl)-2,2-difluoro-1-(pyrimidin-5-yl)ethanol], for which, in assay [2], the MIC was 1.5 µg/mL (≈ 3.5 µM).

Take `C=CCc1ccc(C(F)(F)C(O)(Cn2cnnn2)c2ccc(F)cc2F)nc1` (stereo not drawn) [Compound 61, 1-(5-Allylpyridin-2-yl)-2-(2,4-difluorophenyl)-1,1-difluoro-3-(1H-tetrazol-1-yl)propan-2-ol]: the minimal inhibitory concentration (MIC) in assay [2] is 1.5 to 4 µg/mL (≈ 3.81 to 10.2 µM).

In the case of `OC(Cc1cc[nH]n1)(c1ccc(F)cc1F)C(F)(F)c1ccc(Br)cn1` (stereo not drawn) [Compound 62, 1-(5-Bromopyridin-2-yl)-2-(2,4-difluorophenyl)-1,1-difluoro-3-(1H-pyrazol-3-yl)propan-2-ol], the minimum inhibitory concentration (MIC) in assay [2] is not above 0.5 µg/mL.

Regarding `OC(Cc1cc[nH]n1)(c1ccc(F)cc1F)C(F)(F)c1ccc(-n2nccn2)cn1` (stereo not drawn) [Compound 63, 1-(5-(2H-1,2,3-Triazol-2-yl)pyridin-2-yl)-2-(2,4-difluorophenyl)-1,1-difluoro-3-(1H-pyrazol-3-yl)propan-2-ol], in assay [2], the minimum inhibitory concentration (MIC) is 1.5 µg/mL (≈ 3.59 µM).

Consider `OC(Cc1cc[nH]n1)(c1ccc(F)cc1F)C(F)(F)c1ccc(-n2ccnn2)cn1` (stereo not drawn) [Compound 64, 1-(5-(1H-1,2,3-Triazol-1-yl)pyridin-2-yl)-2-(2,4-difluorophenyl)-1,1-difluoro-3-(1H-pyrazol-3-yl)propan-2-ol], for which the MIC in assay [2] is more than 4 µg/mL.

Regarding `OC(Cc1cn[nH]c1)(c1ccc(F)cc1F)C(F)(F)c1ccccn1` (stereo not drawn) [Compound 65, 2-(2,4-Difluorophenyl)-1,1-difluoro-3-(1H-pyrazol-4-yl)-1-(pyridin-2-yl)propan-2-ol], in assay [2], the MIC fell in the range of 1.5 to 4 µg/mL (≈ 4.27 to 11.4 µM).

In the case of `O=C(c1ccc(C(F)(F)C(O)(Cn2cnnn2)c2ccc(F)cc2F)nc1)c1ccc(F)c(F)c1` (stereo not drawn) [Compound 70, (3,4-Difluorophenyl)(6-(2-(2,4-difluorophenyl)-1,1-difluoro-2-hydroxy-3-(1H-tetrazol-1-yl)propyl)pyridin-3-yl)methanone], in assay [2], the minimal inhibitory concentration (MIC) is not above 0.5 µg/mL.

On to `OC(c1ccc(C(F)(F)F)cc1)c1ccc(C(F)(F)C(O)(Cn2cnnn2)c2ccc(F)cc2F)nc1` (stereo not drawn) [Compound 72, 2-(2,4-Difluorophenyl)-1,1-difluoro-1-(5-(hydroxy(4-(trifluoromethyl)phenyl)methyl)pyridin-2-yl)-3-(1H-tetrazol-1-yl)propan-2-ol], for which the minimum inhibitory concentration (MIC) in assay [2] is 1.5 to 4 µg/mL (≈ 2.84 to 7.58 µM).

For `OC(Cn1cnnn1)(c1ccc(F)cc1F)C(F)(F)c1ccc(C(F)(F)c2ccc(Cl)cc2)cn1` (stereo not drawn) [Compound 74, 1-(5-((4-Chlorophenyl)difluoromethyl)pyridin-2-yl)-2-(2,4-difluorophenyl)-1,1-difluoro-3-(1H-tetrazol-1-yl)propan-2-ol], the minimum inhibitory concentration (MIC) in assay [2] lay in the range of 1.5 to 4 µg/mL (≈ 2.92 to 7.78 µM).

Take `OC(Cn1cnnn1)(c1ccc(F)cc1F)C(F)(F)c1ccc(-c2ccc(Br)s2)cn1` (stereo not drawn) [Compound 78, 1-(5-(5-Bromothiophen-2-yl)pyridin-2-yl)-2-(2,4-difluorophenyl)-1,1-difluoro-3-(1H-tetrazol-1-yl)propan-2-ol]: the MIC in assay [2] was not above 0.5 µg/mL.

Regarding `N#Cc1ccc(OCc2ccc(C(F)(F)C(O)(Cn3ncnn3)c3ccc(F)cc3F)nc2)cc1` (stereo not drawn) [Compound 80, 4-((6-(2-(2,4-Difluorophenyl)-1,1-difluoro-2-hydroxy-3-(2H-tetrazol-2-yl)propyl)pyridin-3-yl)methoxy)benzonitrile], in assay [2], the MIC is more than 4 µg/mL.

On to `OC(Cn1cnnn1)(c1ccc(F)cc1F)C(F)(F)c1ccc(N2CCOCC2)cn1` (stereo not drawn) [Compound 81, 2-(2,4-Difluorophenyl)-1,1-difluoro-1-(5-morpholinopyridin-2-yl)-3-(1H-tetrazol-1-yl)propan-2-ol], for which the MIC in assay [2] is 1.5 to 4 µg/mL (≈ 3.42 to 9.12 µM).

Turning to `OC(Cn1cnnn1)(c1ccc(F)cc1F)C(F)(F)c1ccc(N2CCCCC2)cn1` (stereo not drawn) [Compound 82, 2-(2,4-Difluorophenyl)-1,1-difluoro-1-(5-(piperidin-1-yl)pyridin-2-yl)-3-(1H-tetrazol-1-yl)propan-2-ol], the MIC in assay [2] lay within 1.5 to 4 µg/mL (≈ 3.44 to 9.17 µM).

For `CC(F)(c1ccc(Br)cn1)C(O)(Cn1cnnn1)c1ccc(F)cc1F` (stereo not drawn) [Compound 84, 3-(5-Bromopyridin-2-yl)-2-(2,4-difluorophenyl)-3-fluoro-1-(1H-tetrazol-1-yl)butan-2-ol], the MIC in assay [2] turned out to be 1.5 µg/mL (≈ 3.5 µM).

Take `CC(F)(c1ccc(Br)cn1)C(O)(Cn1cnnn1)c1ccc(F)cc1F` (stereo not drawn) [Compound 85, 3-(5-Bromopyridin-2-yl)-2-(2,4-difluorophenyl)-3-fluoro-1-(1H-tetrazol-1-yl)butan-2-ol]: in assay [2], the “Septoria Rating (MIC)” value was “C (>1.5-4)”.

Turning to `OC(Cc1cncs1)(c1ccc(F)cc1F)C(F)(F)c1ccccn1` (stereo not drawn) [Compound 86, 2-(2,4-Difluorophenyl)-1,1-difluoro-1-(pyridin-2-yl)-3-(thiazol-5-yl)propan-2-ol], the minimal inhibitory concentration (MIC) in assay [2] was not above 0.5 µg/mL.

In the case of `CC(C)OCc1ccc(C(F)(F)C(O)(Cn2cnnn2)c2ccc(F)cc2F)nc1` (stereo not drawn) [Compound 91, 2-(2,4-difluorophenyl)-1,1-difluoro-1-(5-(isopropoxymethyl)pyridin-2-yl)-3-(1H-tetrazol-1-yl)propan-2-ol], the MIC in assay [2] came to 1.5 µg/mL (≈ 3.53 µM).

Consider `OC(Cn1cnnn1)(c1ccc(F)cc1F)C(F)(F)c1ccc(Cc2ccc(Cl)nc2)cn1` (stereo not drawn) [Compound 97, 1-(5-((6-chloropyridin-3-yl)methyl)pyridin-2-yl)-2-(2,4-difluorophenyl)-1,1-difluoro-3-(1H-tetrazol-1-yl)propan-2-ol], for which, in assay [2], the minimal inhibitory concentration (MIC) was not above 0.5 µg/mL.
